Experimental data taken from patent US8153791B2, “Substituted pyrimidinyl oxime kinase inhibitors” (Janssen Pharmaceutica N.V., priority 2005, dated 2012).

Columns and labels:
[1] = tested on: N87 gastric carcinoma cells; experiment: N87 Human Tumor Xenograft Model; format: in vivo, nu/nu mice; details: treatment groups 5-10, 100 mg/kg oral once daily for 30 days
Excerpt: The N87 gastric carcinoma cell line overexpresses HER-2 as a result of gene amplification and forms tumors in nude mice (Kasprzyk P G, Song S U, Di Fiore P P, King C R, Therapy of an animal model of human gastric cancer using a combination of anti-erbB-2 monoclonal antibodies, Cancer Res., 1992, 52, 2771-2776).
Female nu/nu mice (Charles River; 8 to 9 weeks of age) were implanted subcutaneously with from 3×10^6 to 5×10^6 N87 gastric carcinoma cells (obtained from the American Type Culture Collection, ATCC Cat. #CRL-5822) in the flank. Animals were weighed twice weekly during the study and examined frequently.
Tumor size was monitored twice weekly and then daily as the neoplasms reached the target weight range (about 75 mg). Animals were pair-matched when tumors were in the 62 to 126 mg range (group mean tumor size: 70 to 74 mg). Estimated tumor weight was calculated using the formula: […]
A test compound was orally administered daily in the test treatment group after the tumor reached the target weight. For treatment group 1, the test compound was administered once daily for 35 days. For treatment group 2, the test compound was administered once daily for 30 days. For treatment group 3, each dose of test compound was administered once daily for 30 days. For treatment group 4, each dose of test compound was administered once daily for 36 days. For treatment group 5-10, the test compound was administered once daily for 30 days.
Tumor weight was measured daily for subjects (n=8) in the test group and the matched subjects (n=8) in the vehicle-treated group.
The tumor growth inhibition (in percent) was calculated on the last day of the study using the formula: […]
(§1) Statistical significance was evaluated by comparing the vehicle group to the test group using a two tailed Students t test. The term “NC” means that the P value for the treatment group indicated was not calculated. The lack of such calculation is not intended to imply a belief that the activity of the compound is not otherwise statistically significant in this particular cell line or in any other cell line not tested.

[2] = tested on: A431 epidermoid carcinoma; experiment: In vitro cell proliferation inhibition, A431; format: cell-based; details: Homo sapiens, A-431; A431 cells, 14C-thymidine incorporation; read-out: IC50 A431
Excerpt: (§2) The ability of a test compound to inhibit unregulated in vitro cell proliferation may be determined by measuring incorporation of ^14C-labelled thymidine into newly synthesized DNA within cell lines derived from carcinomas originating from several tissues. Accordingly, the effect of a test compound on proliferation of cells with a variety of phenotypes may be determined.
(§3) Carcinoma cell lines used include the HeLa cervical adenocarcinoma from the American Type Culture Collection (ATCC Cat. #CCL2), SK-OV-3 ovarian carcinoma (ATCC Cat. #HTB-77), MCF-7 breast carcinoma (ATCC Cat. #HTB-22), BT474 breast carcinoma (ATCC Cat. #HTB-20), SKBR3 breast carcinoma (ATCC Cat. #HTB-30), A431 epidermoid carcinoma (ATCC Cat. #CRL-1555) and NCI-N87 gastric carcinoma (ATCC Cat. #CRL-5822).
(§4) The carcinoma cells are trypsinized and counted. The cells (3000-8000 count) are added to each well of a 96-well CytoStar tissue culture treated scintillating microplate (Amersham #RPNQ0160) in complete medium (100 μL) and the plate is then incubated in complete medium for 24 hrs at 37° C. in an inert atmosphere containing 5% CO2.
(§5) Test compound (1 μL) in 100% DMSO is added to the plate test-wells with DMSO only added to control-wells. The plate is incubated in complete medium for a second 24 hr period at 37° C. in an atmosphere containing 5% CO2.
(§6) An aliquot of a solution of Methyl ^14C-thymidine (56 mC/mmol) (NEN #NEC568 or Amersham #CFA532) and complete medium (20 μL to provide 0.2 μCi/well) is then added to each well and the plate is incubated for a third 24 hr period at 37° C. in an atmosphere containing 5% CO2.
(§7) The plate contents are then discarded, the plate is washed twice with PBS (200 μL) and then PBS (200 μL) is added to each well. The plate is sealed and the degree of methyl ^14C-thymidine incorporation is quantified on a Packard Top Count.
(§8) Cell proliferation of the Hela cell line was measured using the ATP-Lite method as described in the ATP Lite Kit (Perkin-Elmer Kit Number 6106941) or the C^14 method as described above. Cell proliferation of the other cell lines was measured using the C^14 method.
(§9) The term “NT” means that the compound indicated was not tested in a particular cell line. The lack of such testing is not intended to imply a belief that the compound is not otherwise active in a particular cell line or any other cell line not tested.

SKBR3 breast carcinoma = experiment: In vitro cell proliferation inhibition, SKBR3; format: cell-based; details: Homo sapiens, SK-BR-3; SKBR3 cells, 14C-thymidine incorporation; read-out: IC50 SKBR3
Excerpt: as §2, §3, §4, §5, §6, §7, §8, §9

[3] = tested on: A431 epidermoid carcinoma cells; experiment: A431 Human Tumor Xenograft Model; format: in vivo, nu/nu mice; details: treatment groups 5-10, 100 mg/kg oral once daily for 30 days
Excerpt: The A431 epidermoid carcinoma cell line overexpresses EGFR, activating signaling pathways responsible for driving the proliferation, invasion and survival of cancer cells and forming tumors in nude mice (Giard D J, Aaronson S A, Todaro G J, Arnstein P, Kersey J H, Dosik H, Parks W P, In vitro cultivation of human tumors: establishment of cell lines derived from a series of solid tumors, J. Natl. Cancer Inst., 1973, 51, 1417-1423; and, Kawamoto T, Sato J D, Le A, Polikoff J, Sato G H, Mendelsohn J, Growth stimulation of A431 cells by epidermal growth factor: identification of high-affinity receptors for epidermal growth factor by an anti-receptor monoclonal antibody, Proc. Natl. Acad. Sci. USA, 1983, 80, 1337-1341).
Female nu/nu mice (Charles River; 8 to 9 weeks of age) were implanted subcutaneously in the flank with 4×10^6 A431 epidermoid carcinoma cells (obtained from the American Type Culture Collection, ATCC Cat. #CRL-1555). Animals were weighed twice weekly during the study and examined frequently.
Tumor size was monitored twice weekly and then daily as the neoplasms reached the target weight range (about 75 mg). Animals were pair-matched when tumors were in the 62 to 126 mg range (group mean tumor size: 70 to 74 mg). Estimated tumor weight was calculated using the formula of Example 4.
A test compound was orally administered daily in the test treatment group after the tumor reached the target weight. For treatment groups 1 and 2, each dose of test compound was administered once daily for 25 days. For treatment group 3, each dose of test compound was administered twice daily for 25 days. For treatment group 4, the test compound was administered twice daily for 30 days. For treatment group 5-10, the test compound was administered once daily for 30 days.
as §1

[4] = tested on: NCI-N87 gastric carcinoma; experiment: In vitro cell proliferation inhibition, NCI-N87; format: cell-based; details: Homo sapiens, NCI-N87; N87 cells, 14C-thymidine incorporation; read-out: IC50 N87
Excerpt: as §2, §3, §4, §5, §6, §7, §8, §9

HER-2 = biological target: T1, HER-2 (Homo sapiens, UniProt P04626); experiment: HER-2 Kinase Assay; format: biochemical; details: read-out: HER2 IC50;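 further: HER2 kinase reaction read by scintillation counting, inhibition scaled between maximum and minimum signals set on each plate, IC50 from inhibition against log concentration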
T1 construct: purchased Proqinase (Freiburg, Germany)
T1 sequence (P04626 679-1255): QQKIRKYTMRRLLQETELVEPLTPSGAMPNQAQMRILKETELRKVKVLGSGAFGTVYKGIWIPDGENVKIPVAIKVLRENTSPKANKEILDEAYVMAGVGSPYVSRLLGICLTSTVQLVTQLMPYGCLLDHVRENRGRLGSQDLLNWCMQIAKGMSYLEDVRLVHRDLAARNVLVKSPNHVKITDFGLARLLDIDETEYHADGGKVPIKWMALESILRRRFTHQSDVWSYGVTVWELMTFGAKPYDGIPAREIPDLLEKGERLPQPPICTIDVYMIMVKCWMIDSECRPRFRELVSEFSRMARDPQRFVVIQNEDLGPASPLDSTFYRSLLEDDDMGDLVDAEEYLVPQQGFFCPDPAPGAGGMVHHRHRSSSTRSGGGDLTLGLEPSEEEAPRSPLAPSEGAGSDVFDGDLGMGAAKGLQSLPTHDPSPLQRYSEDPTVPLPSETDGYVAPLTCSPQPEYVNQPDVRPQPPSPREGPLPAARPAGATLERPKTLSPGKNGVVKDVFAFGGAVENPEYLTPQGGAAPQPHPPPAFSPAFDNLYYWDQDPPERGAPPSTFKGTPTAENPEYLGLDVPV

BT474 breast carcinoma = experiment: In vitro cell proliferation inhibition, BT474; format: cell-based; details: Homo sapiens, BT-474; BT474 cells, 14C-thymidine incorporation; read-out: IC50 BT474
Excerpt: as §2, §3, §4, §5, §6, §7, §8, §9

[5] = tested on: HeLa cervical adenocarcinoma; experiment: In vitro cell proliferation inhibition, HeLa; format: cell-based; details: Homo sapiens; HeLa cell line; ATP-Lite method or C14 thymidine method; read-out: HeLa IC50
Excerpt: as §2, §3, §4, §5, §6, §7, §8, §9

MCF-7 breast carcinoma = experiment: In vitro cell proliferation inhibition, MCF-7; format: cell-based; details: Homo sapiens, MCF7; MCF-7 cells, 14C-thymidine incorporation
Excerpt: as §2, §3, §4, §5, §6, §7, §8, §9

EGFR = biological target: T2, EGFR (Homo sapiens, UniProt P00533); experiment: EGFR Kinase Assay; format: biochemical;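 further: recombinant GST-tagged EGFR expressed in Sf9 cells, phosphorylating biotinylated polyGluTyr with γ-33P ATP on Streptavidin Flashplates, 1 h at 30 °C, scintillation counting, inhibition relative to plate maximum and minimum signals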
T2 construct: The intracellular portion of EGFR started at nucleotide 2189 (corresponding to amino acid 667) and ended at the termination codon; made in house; host or cells: Sf9 insect cells (baculovirus)
T2 sequence (P00533 669-1210 limits assumed): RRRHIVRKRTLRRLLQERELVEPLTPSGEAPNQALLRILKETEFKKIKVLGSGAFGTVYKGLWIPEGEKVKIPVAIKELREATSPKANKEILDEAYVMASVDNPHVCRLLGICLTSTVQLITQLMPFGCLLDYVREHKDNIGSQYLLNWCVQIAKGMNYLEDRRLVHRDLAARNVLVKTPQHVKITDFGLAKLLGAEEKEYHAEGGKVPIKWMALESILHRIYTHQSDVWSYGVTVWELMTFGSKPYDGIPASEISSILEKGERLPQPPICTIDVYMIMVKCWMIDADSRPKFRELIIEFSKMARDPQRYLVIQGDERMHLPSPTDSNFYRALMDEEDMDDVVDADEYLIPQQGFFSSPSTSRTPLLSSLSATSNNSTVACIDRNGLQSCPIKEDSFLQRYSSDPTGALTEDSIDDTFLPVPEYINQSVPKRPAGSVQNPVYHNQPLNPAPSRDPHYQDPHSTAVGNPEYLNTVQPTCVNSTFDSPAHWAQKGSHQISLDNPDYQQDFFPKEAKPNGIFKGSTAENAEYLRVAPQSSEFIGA

[6] = tested on: SK-OV-3 ovarian carcinoma; experiment: In vitro cell proliferation inhibition, SK-OV-3; format: cell-based; details: Homo sapiens; SK-OV-3 cells, 14C-thymidine incorporation
Excerpt: as §2, §3, §4, §5, §6, §7, §8, §9

Compound	IC50 [2] [nM]	IC50 (SKBR3 breast carcinoma) [nM]	IC50 [4] [nM]	IC50 (HER-2) [nM]	IC50 (BT474 breast carcinoma) [nM]	IC50 [5] [nM]	IC50 (MCF-7 breast carcinoma) [nM]	IC50 (EGFR) [nM]	IC50 [6] [nM]	N87 Tumor Growth Inhibition TGI [1] [%]	A431 Tumor Growth Inhibition TGI [3] [%]
COCCNCCCO/N=C/c1c(N)ncnc1Nc1ccc(OCc2ccccc2)c(Cl)c1 [Cpd 115, (5E)-4-amino-6-(4-benzyloxy-3-chloro-phenylamino)-pyrimidine-5-carbaldehyde O-[3-(2-methoxy-ethylamino)-propyl]-oxime]	–	–	–	–	–	–	–	–	–	50.2	4
Nc1ncnc(Nc2ccc(OCc3ccccc3)c(Cl)c2)c1/C=N/OCc1ccccn1 [Cpd 114, (5E)-4-amino-6-(4-benzyloxy-3-chloro-phenylamino)-pyrimidine-5-carbaldehyde O-pyridin-2-ylmethyl-oxime]	–	–	–	–	–	–	–	–	–	47	−3
Nc1ncnc(Nc2ccc(OCc3cccc(F)c3)c(Cl)c2)c1/C=N/OCCN1CCOCC1 [Cpd 93, (5E)-4-amino-6-[3-chloro-4-(3-fluoro-benzyloxy)-phenylamino]-pyrimidine-5-carbaldehyde O-(2-morpholin-4-yl-ethyl)-oxime]	600	20	70	8	40	22100	100000	20	100000	59.9	64.0

More lines, main results first:

IC50 [2] [nM]	IC50 (SKBR3 breast carcinoma) [nM]	IC50 [4] [nM]	IC50 (HER-2) [nM]	IC50 (BT474 breast carcinoma) [nM]	IC50 [5] [nM]	IC50 (MCF-7 breast carcinoma) [nM]	IC50 (EGFR) [nM]	IC50 [6] [nM]	Compound	N87 Tumor Growth Inhibition TGI [1] [%]	A431 Tumor Growth Inhibition TGI [3] [%]
9	60	30	60	50	25100	–	–	–	Nc1ncnc(Nc2ccc3c(ccn3Cc3cccc(F)c3)c2)c1/C=N/OCCN1CCOCC1 [Cpd 101, (5E)-4-amino-6-[1-(3-fluoro-benzyl)-1H-indol-5-ylamino]-pyrimidine-5-carbaldehyde O-(2-morpholin-4-yl-ethyl)-oxime]	66	51
–	500	400	40	500	6100	1000	20	1000	Nc1ncnc(Nc2ccc(OCc3cccc(F)c3)c(Cl)c2)c1/C=N/OCCN1CCCCC1 [Cpd 94, (5E)-4-amino-6-[3-chloro-4-(3-fluoro-benzyloxy)-phenylamino]-pyrimidine-5-carbaldehyde O-(2-piperidin-1-yl-ethyl)-oxime]	47.1	66
–	–	–	–	–	–	–	20	–	Nc1ncnc(Nc2ccc(OCc3ccccc3)c(Cl)c2)c1/C=N/OCCCN1CCOCC1 [Cpd 112, (5E)-4-amino-6-(4-benzyloxy-3-chloro-phenylamino)-pyrimidine-5-carbaldehyde O-(3-morpholin-4-yl-propyl)-oxime]	48.6	33
